Data from patent US20250011313A1, “CCR6 RECEPTOR MODULATORS” (Idorsia Pharmaceuticals Ltd, priority 2021, published 2025).

Molecular target: T1, human CCR6 (Homo sapiens, UniProt P51684)
T1 construct: expressed in transfected cells; host or cells: HEK-293
T1 sequence (P51684 1-374): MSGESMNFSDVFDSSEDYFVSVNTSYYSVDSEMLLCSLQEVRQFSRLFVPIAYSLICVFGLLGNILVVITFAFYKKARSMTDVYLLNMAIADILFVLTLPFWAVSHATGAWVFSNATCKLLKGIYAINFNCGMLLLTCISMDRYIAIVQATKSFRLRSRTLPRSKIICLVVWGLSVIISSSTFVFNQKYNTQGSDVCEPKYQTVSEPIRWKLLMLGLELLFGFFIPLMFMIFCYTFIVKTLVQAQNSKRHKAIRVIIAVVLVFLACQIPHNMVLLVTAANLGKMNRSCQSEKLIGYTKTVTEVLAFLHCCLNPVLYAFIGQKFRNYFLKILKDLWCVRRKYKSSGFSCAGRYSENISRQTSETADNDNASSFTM
Assay: FLIPR assay (calcium flux, inhibition of CCL20 agonist response)
Format: cell-based
Details: HEK-293 cells expressing human CCR6; agonist CCL20 10 nM; 30 min preincubation; mean values if determined several times
Method: FLIPR assay: The bioactivity of compounds is tested in a fluorometric imaging plate reader (FLIPR: Molecular Devices) using engineered HEK-293 cells expressing the human CCR6 (GenBank: AY242126). Frozen cells are plated on Poly-L-Lysine precoated 384-well plates 2 days prior to bioassay in DMEM medium supplemented with 10% FCS and 1% Penicillin-Streptomycin. At the day of bioassay, cell supernatant is discarded and cells are dye loaded for 30 minutes at room temperature in the dark with Fluo-8-AM (Focus Biomolecules) in Hanks Balanced Salt Solution (Gibco), buffered with 20 mM Hepes at pH 6.75 and supplemented with 0.05% BSA. This buffer, but lacking the dye, is also used for washing and compound dilution steps (assay buffer). Cells are washed free of excess dye with a wash-station (Biotek), leaving 40 microliter of assay buffer at the end. Cells were incubated for 15 minutes at room temperature in the dark, before adding compounds. Stock solutions of test compounds are made up at a concentration of 10 mM in DMSO, and serially diluted first in DMSO and then transferred in assay buffer to concentrations required for inhibition dose response curves. After a 45 minute incubation period in assay buffer at room temperature, 10 microliters of each compound dilution are transferred from a compound plate to the plate containing the recombinant cells in the FLIPR instrument according to the manufacturer's instructions. After cells and compounds were preincubated for 30 minutes at room temperature in the dark, 10 microliter agonist CCL20 (Peprotech) at a final concentration of 10 nM is added, again using the FLIPR instrument. Changes in fluorescence are monitored before and after addition of the test compounds and agonist. Emission peak values above base level after CCL20 addition are exported after base line subtraction. The calculated IC50 values may fluctuate depending on the daily assay performance. Fluctuations of this kind are known to those skilled in the art. In the case where IC50 values have been determined several times for the same compound, mean values are given.

Structure (SMILES)	IC50 [nM]
CN1CC(C)([C@](O)(c2ccc(CC(F)(F)F)cc2)c2cncc(-c3noc(C45CCC(C(N)=O)(CC4)CC5)n3)c2)C1 [Example 15, 4-[3-(5-{(R)-(1,3-Dimethyl-azetidin-3-yl)-hydroxy-[4-(2,2,2-trifluoro-ethyl)-phenyl]-methyl}-pyridin-3-yl)-[1,2,4]oxadiazol-5-yl]-bicyclo[2.2.2]octane-1-carboxylic acid amide]	65.3
CN1CC(C)([C@](O)(c2ccc(CC(F)(F)F)cc2)c2cncc(-c3noc(C45CC(CO)(C4)C5)n3)c2)C1 [Example 2, (R)-(1,3-Dimethyl-azetidin-3-yl)-{5-[5-(3-hydroxymethyl-bicyclo[1.1.1]pent-1-yl)-[1,2,4]oxadiazol-3-yl]-pyridin-3-yl}-[4-(2,2,2-trifluoro-ethyl)-phenyl]-methanol]	140
CC(=O)NC12CC(c3nc(-c4cncc([C@@](O)(c5ccc(C(C)C)cc5)C5(C)CN(C)C5)c4)no3)(C1)C2 [Example 3, N-[3-(3-{5-[(R)-(1,3-Dimethyl-azetidin-3-yl)-hydroxy-(4-isopropyl-phenyl)-methyl]-pyridin-3-yl}-[1,2,4]oxadiazol-5-yl)-bicyclo[1.1.1]pent-1-yl]-acetamide]	55.7
CC(C)c1ccc([C@](O)(c2cncc(C#CC(C)(O)c3ccncn3)c2)C2(C)CN(C)C2)cc1 (single isomer, unassigned) [Example 10, (R)- or (S)-4-{5-[(R)-(1,3-Dimethyl-azetidin-3-yl)-hydroxy-(4-isopropyl-phenyl)-methyl]-pyridin-3-yl}-2-pyrimidin-4-yl-but-3-yn-2-ol]	71.5
CN1CC(C)([C@](O)(c2ccc(CC(F)(F)F)cc2)c2cncc(-c3nc(C45CC(CO)(C4)C5)no3)c2)C1 [Example 9, (R)-(1,3-Dimethyl-azetidin-3-yl)-{5-[3-(3-hydroxymethyl-bicyclo[1.1.1]pent-1-yl)-[1,2,4]oxadiazol-5-yl]-pyridin-3-yl}-[4-(2,2,2-trifluoro-ethyl)-phenyl]-methanol]	146
CC(=O)N[C@H]1CC[C@H](c2nc(-c3cncc([C@@](O)(c4ccc(CC(F)(F)F)cc4)C4(C)CN(C)C4)c3)no2)CC1 [Example 16, N-{4-[3-(5-{(R)-(1,3-Dimethyl-azetidin-3-yl)-hydroxy-[4-(2,2,2-trifluoro-ethyl)-phenyl]-methyl}-pyridin-3-yl)-[1,2,4]oxadiazol-5-yl]-trans-cyclohexyl}-acetamide]	226
CC(=O)N1CC2(CC(c3nc(-c4cncc([C@@](O)(c5ccc(C(C)C)cc5)C5(C)CN(C)C5)c4)no3)C2)C1 [Example 6, 1-[6-(3-{5-[(R)-(1,3-Dimethyl-azetidin-3-yl)-hydroxy-(4-isopropyl-phenyl)-methyl]-pyridin-3-yl}-[1,2,4]oxadiazol-5-yl)-2-aza-spiro[3.3]hept-2-yl]-ethanone]	111
CN1CC(C)([C@](O)(c2ccc(CC(F)(F)F)cc2)c2cncc(-c3noc([C@H]4CC[C@H](O)CC4)n3)c2)C1 [Example 1, trans-4-[3-(5-{(R)-(1,3-Dimethyl-azetidin-3-yl)-hydroxy-[4-(2,2,2-trifluoro-ethyl)-phenyl]-methyl}-pyridin-3-yl)-[1,2,4]oxadiazol-5-yl]-cyclohexanol]	83
CC(C)c1ccc([C@](O)(c2cncc(-c3noc(C45CCC(C(N)=O)(CC4)CC5)n3)c2)C2(C)CN(C)C2)cc1 [Example 13, 4-(3-{5-[(R)-(1,3-Dimethyl-azetidin-3-yl)-hydroxy-(4-isopropyl-phenyl)-methyl]-pyridin-3-yl}-[1,2,4]oxadiazol-5-yl)-bicyclo[2.2.2]octane-1-carboxylic acid amide]	37.5
CC(C)c1ccc([C@](O)(c2cncc(C#C[C@H]3CC[C@H](O)CC3)c2)C2(C)CN(C)C2)cc1 [Example 11, trans-4-{5-[(R)-(1,3-Dimethyl-azetidin-3-yl)-hydroxy-(4-isopropyl-phenyl)-methyl]-pyridin-3-ylethynyl}-cyclohexanol]	28.7
CC(C)c1ccc([C@](O)(c2cncc(-c3noc(C45CCC(O)(CC4)CC5)n3)c2)C2(C)CN(C)C2)cc1 [Example 4, 4-(3-{5-[(R)-(1,3-Dimethyl-azetidin-3-yl)-hydroxy-(4-isopropyl-phenyl)-methyl]-pyridin-3-yl}-[1,2,4]oxadiazol-5-yl)-bicyclo[2.2.2]octan-1-ol]	23.9
CC(C)c1ccc([C@](O)(c2cncc(C#C[C@H]3CC[C@@H](O)CC3)c2)C2(C)CN(C)C2)cc1 [Example 12, cis-4-{5-[(R)-(1,3-Dimethyl-azetidin-3-yl)-hydroxy-(4-isopropyl-phenyl)-methyl]-pyridin-3-ylethynyl}-cyclohexanol]	25.4
CC(C)c1ccc([C@](O)(c2cncc(-c3noc(C4CCC(C(N)=O)CC4)n3)c2)C2(C)CN(C)C2)cc1 (stereo partly drawn) [Example 14, 4-(3-{5-[(R)-(1,3-Dimethyl-azetidin-3-yl)-hydroxy-(4-isopropyl-phenyl)-methyl]-pyridin-3-yl}-[1,2,4]oxadiazol-5-yl)-cyclohexanecarboxylic acid amide]	46.3
CN1CC(C)([C@](O)(c2ccc(CC(F)(F)F)cc2)c2cncc(-c3nc(C(C)(C)CO)no3)c2)C1 [Example 5, 2-[5-(5-{(R)-(1,3-Dimethyl-azetidin-3-yl)-hydroxy-[4-(2,2,2-trifluoro-ethyl)-phenyl]-methyl}-pyridin-3-yl)-[1,2,4]oxadiazol-3-yl]-2-methyl-propan-1-ol]	144
CCC(=O)N[C@H]1CC[C@H](c2nc(-c3cncc([C@@](O)(c4ccc(C(C)C)cc4)C4(C)CN(C)C4)c3)no2)CC1 [Example 7, trans-N-[4-(3-{5-[(R)-(1,3-Dimethyl-azetidin-3-yl)-hydroxy-(4-isopropyl-phenyl)-methyl]-pyridin-3-yl}-[1,2,4]oxadiazol-5-yl)-cyclohexyl]-propionamide]	78.8
CC(=O)NC1CCC(c2nc(-c3cncc([C@@](O)(c4ccc(C(C)C)cc4)C4(C)CN(C)C4)c3)no2)CC1 (single isomer, unassigned) [Example 8, cis- or trans-N-[4-(3-{5-[(R)-(1,3-Dimethyl-azetidin-3-yl)-hydroxy-(4-isopropyl-phenyl)-methyl]-pyridin-3-yl}-[1,2,4]oxadiazol-5-yl)-cyclohexyl]-acetamide]	52.2
